Data taken from patent US20040062729A1, “Photoprotective sunscreen compositions comprising 1,3,5-triazine compounds and triesters of benenetricarboxylic acids” (SOCIETE L'OREAL S.A., priority 2001, published 2004).

Conditions: 5 g 2,4-bis{[4-2-ethylhexyl-oxy)]-2-hydroxy]phenyl}-6-(4-methoxyphenyl)-1,3,5-triazine in 20 g solvent oil, heated to 83° C., cooled
Protocol: The solubilization time of 2,4-bis{[4-2-ethylhexyl-oxy)]-2-hydroxy]phenyl}-6-(4-methoxyphenyl)-1,3,5-triazine (screening agent) in various solvents is determined by means of the following test:
at room temperature, 20 g of solvent are added to 5 g of screening agent,
the mixture thus obtained is heated to 83° C. by means of a water bath,
after cooling, the possible presence of crystals is then observed under a microscope, between a slide and glass coverslips, in polarized light.

Molecule | Presence of crystals, storage in the cold (+4° C.) for 4 days | Presence of crystals, storage at room temperature for 4 days
CCCCCCCCCCCCCCCC(=O)OCC(CC)CCCC (stereo not shown) [2-Ethylhexyl palmitate] | Crystals | Crystals
CCCCCCCCC(CCCCCC)C(=O)O (stereo not shown) [2-Hexyldecanoic acid] | Crystals | Crystals
CCCCCCCCCCC(CO)CCCCCCCC (stereo not shown) [2-Octyldodecanol] | Crystals | Crystals
C[Si]1(C)O[Si](C)(C)O[Si](C)(C)O[Si](C)(C)O[Si](C)(C)O1 [Cyclopentadimethylsiloxane] | Crystals | Crystals
CCCCC(CC)COC(=O)CCCCC(=O)OCC(CC)CCCC (stereo not shown) [Di(2-ethylhexyl) adipate] | Crystals | Crystals
CO[C@H]1CO[C@H]2[C@@H]1OC[C@H]2OC [Dimethyl isosorbide] | Crystals | Crystals
CCCCCCCCOC(=O)CC(O)C(=O)OCCCCCCCC (stereo not shown) [Dioctyl malate] | Crystals | Crystals
CC(CC(=O)OCC(COC(=O)CC(C)CC(C)(C)C)OC(=O)CC(C)CC(C)(C)C)CC(C)(C)C (stereo not shown) [Glyceryl triisononanoate] | Crystals | Crystals
CCCCCCCCC(CO)CCCCCC (stereo not shown) [Isocetyl alcohol, 2-hexyldecanol] | Crystals | Crystals
CC(C)CCCCCCCOC(=O)C(C)(C)C [Isodecyl neopentanoate] | Crystals | Crystals
CCCCCCCCCCCCCC(C)C [Isohexadecane] | Crystals | Crystals/Cloudy
CC(C)CCCCCCOC(=O)CCCCCC(C)C [Isononyl isononanoate] | Crystals | Crystals
CCCCC(CC)C(=O)OCC(C)(C)COC(=O)C(CC)CCCC (stereo not shown) [Neopentyl glycol di-2-ethylhexanoate] | Crystals | Crystals
CCCCCCCC/C=C\CCCCCCCCO [Oleyl alcohol] | Crystals | Crystals
Oxypropylenated butanediol (10 PO) | Crystals | Crystals
Oxypropylenated stearyl alcohol | Crystals | Crystals
Tridecyl trimellitate | Absence of | Absence of
